Values of other authors as cited in EP3520802A1, “PROCESS FOR EXTRACTING CURCUMINOIDS” (EFESON - Chemical Research & Engineering Development, priority 2018, dated 2019).

Details: non-clustered curcuminoid, usual value stated as background

logP: around 2.90
Compound: COc1cc(/C=C/C(=O)CC(=O)/C=C/c2ccc(O)c(OC)c2)ccc1O [Curcumin I, curcumin]
